From paper PMC6588613, “Lupin (Lupinus spp.) seeds exert anthelmintic activity associated with their alkaloid content” (Scientific Reports, 2019)
Values after ≈ are worked out from the molar mass of the structure shown. Read-outs that look alike come from different tables or passages of the source.

Key:
[1] = target: C. elegans nicotine-sensitive AChR (Cel-N-AChR, acr-16) (Caenorhabditis elegans, UniProt P48180); assay: Xenopus laevis oocyte two-electrode voltage-clamp, Cel-N-AChR; format: cell-based
Chain of C. elegans nicotine-sensitive AChR (Cel-N-AChR, acr-16) (P48180 20-498): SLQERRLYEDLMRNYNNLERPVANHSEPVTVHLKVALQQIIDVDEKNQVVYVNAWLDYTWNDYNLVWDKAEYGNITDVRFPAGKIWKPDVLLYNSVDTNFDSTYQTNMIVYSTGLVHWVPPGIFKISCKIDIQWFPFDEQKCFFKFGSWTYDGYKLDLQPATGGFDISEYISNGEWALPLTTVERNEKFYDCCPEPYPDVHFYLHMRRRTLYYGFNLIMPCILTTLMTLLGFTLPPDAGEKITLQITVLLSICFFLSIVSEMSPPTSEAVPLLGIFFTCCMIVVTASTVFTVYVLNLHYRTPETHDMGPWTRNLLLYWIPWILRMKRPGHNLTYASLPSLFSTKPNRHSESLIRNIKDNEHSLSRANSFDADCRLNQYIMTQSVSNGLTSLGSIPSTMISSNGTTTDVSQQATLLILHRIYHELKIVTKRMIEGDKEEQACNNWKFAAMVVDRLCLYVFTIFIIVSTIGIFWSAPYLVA
Source text: (§1) The lupanine and alkaloid extracts from lupin seeds were perfused on defolliculated X. laevis oocytes (Ecocyte Bioscience, Dortmund, Germany) expressing either the C. elegans nicotine-sensitive nAChR subtype (Cel-N-nAChR, encoded by acr-16[53]), or its levamisole-sensitive counterpart (Cel-L-nAChR, encoded by unc-38, unc-63, unc-29, lev-1 and lev-8[53]). In the lack of H. contortus nicotine-sensitive AChR described, the sole levamisole-sensitive nAChR subtype 1 (Hco-L-nAChR1, encoded by unc-29.1, unc-38, unc-63 and acr-8[29]) from H. contortus was also expressed. Expression of recombinant nAChRs was achieved by microinjection of cRNAs into the oocyte cytoplasm and two-electrode voltage-clamp recordings were carried out as previously described.
Acetylcholine was applied first to check for the presence of functional nAChRs and for current normalization in presence of lupanine or alkaloid extracts.
(§2) Dose-response data were modelled as a log-logistic regression with two parameters, i.e. the curve slope and the associated median excitatory (EC50) or inhibitory (IC50) concentration using the drc package v3.0-1[58]. To account for differences in maximal response values, a third parameter was added for electrophysiology data modelling.

[2] = tested on: multidrug-resistant H. contortus infective larvae; assay: Automated Larval Migration Assay (ALMA), multidrug-resistant isolate; format: cell-based, Haemonchus contortus; settings: 250 µg/mL, ± s.d.
Description: (§3) Because of the scarcity of fractionated alkaloidic compounds (2.7 to 12.8 mg), their anthelmintic effect on infective H. contortus larvae was measured using ALMA. This technique relies on larval auto-fluorescence generated through ultraviolet excitation[42],[43]. Every alkaloidic compound was incubated for 4 h at 20 °C with 7,500 H. contortus infective larvae each. Larvae were then passed through a 20 μm sieve and left for a 60 s stabilization time before migration into the spectrofluorimeter cuvette. Cumulative fluorescence resulting from larval migration into the cuvette and correlating the total number of larvae[43] was recorded during 5 min. Each set of experiment was performed in triplicate at a concentration of 250 µg/mL but for compound 2 (150 µg/mL). Levamisole 10 µM was used as a positive control.

[3] = tested on: drug-susceptible H. contortus infective larvae; assay: Automated Larval Migration Assay (ALMA), drug-susceptible isolate; format: cell-based, Haemonchus contortus; settings: for larval migration as percentage of control larval migration (ALMA): drug-susceptible larvae, 250 µg/mL (compound 2: 150 µg/mL), 4 h, ± s.d.
Source text: Parasite material was maintained by the INRA animal parasite nematode collection. Two H. contortus isolates that were. susceptible or resistant to every licensed anthelmintic compound in France (benzimidazoles, levamisole, macrocyclic lactones) were used. […] To establish whether lupin effect was conserved across GIN species, a fully susceptible French T. circumcincta isolate[51] was used. […] For every test, infective larvae were exsheathed with 0.5% hypochlorite solution and rinsed thrice with water before subsequent incubation in 5 mg/mL solutions of either crude maceration, alkaloidic fraction or non-alkaloidic fraction, levamisole (10 µM) or water, for 18 h at 20 °C. At the end of the incubation period, 100 L3 were deposited on migration plates with 20 µm mesh at 38 °C for 2 h as described elsewhere. […] Dose-response assays were run with six control replicates and four replicates by concentration tested (0, 5, 7.5 and 10 mg/mL for E063 alkaloids and 0, 2, 4, 6 and 8 mg/mL for ENERGY alkaloids).
as §3

mammalian nAChRs = settings: cited from earlier work
[4] = tested on: susceptible Teladorsagia circumcincta infective larvae; assay: Larval migration inhibition assay (LMIA), T. circumcincta; format: cell-based; settings: lyophilized extracts 5 mg/mL, levamisole 10 µM, read-out: Average inhibitory effect (mean)
Source text: The inhibitory potential of each variety was computed as: p=1−No.treatedmigratedlarvae/AverageNo.controlmigratedlarvae

[5] = tested on: multidrug resistant H. contortus isolate; format: in vivo, Haemonchus contortus; settings: for in vivo Faecal Egg Reduction Test value: 14 days after treatment; for eggs/g 14 days after treatment: before treatment 11400 (levamisole), 1450 (ivermectin)
[6] = tested on: drug-susceptible Haemonchus contortus infective larvae; assay: Larval migration inhibition assay (LMIA), fully susceptible isolate; format: cell-based
[7] = tested on: multidrug resistant H. contortus isolate; assay: In vitro drug susceptibility of the multidrug resistant isolate (assay not given); format: cell-based, Haemonchus contortus
[8] = tested on: fully susceptible H. contortus isolate
[9] = tested on: fully susceptible French T. circumcincta isolate; assay: microbe, parasite or virus in culture; settings: Teladorsagia circumcincta, read-out: IC50 (ALMA)
[10] = tested on: multidrug-resistant Haemonchus contortus infective larvae; assay: Larval migration inhibition assay (LMIA), multidrug resistant isolate; format: cell-based; settings: levamisole 10 µM
[11] = tested on: C. elegans levamisole-sensitive AChR (Cel-L-AChR); assay: Xenopus laevis oocyte two-electrode voltage-clamp, Cel-L-AChR; format: cell-based, Caenorhabditis elegans
Chain of C. elegans levamisole-sensitive AChR (Cel-L-AChR) (Q27218 32-507): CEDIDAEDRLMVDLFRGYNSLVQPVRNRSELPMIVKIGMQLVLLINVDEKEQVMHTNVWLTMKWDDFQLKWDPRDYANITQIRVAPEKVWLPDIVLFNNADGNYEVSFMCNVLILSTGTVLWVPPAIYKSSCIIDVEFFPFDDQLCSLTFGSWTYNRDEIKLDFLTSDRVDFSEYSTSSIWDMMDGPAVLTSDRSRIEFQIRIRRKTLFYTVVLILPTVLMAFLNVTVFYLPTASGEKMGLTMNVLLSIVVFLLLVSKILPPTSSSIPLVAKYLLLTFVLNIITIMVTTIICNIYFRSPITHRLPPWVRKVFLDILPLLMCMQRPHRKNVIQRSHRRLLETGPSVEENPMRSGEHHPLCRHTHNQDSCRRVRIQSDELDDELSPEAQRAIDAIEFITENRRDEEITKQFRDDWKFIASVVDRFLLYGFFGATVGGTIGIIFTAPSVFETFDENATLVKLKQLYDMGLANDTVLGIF
Chain of C. elegans levamisole-sensitive AChR (Cel-L-AChR) (P48181 27-493, further chain): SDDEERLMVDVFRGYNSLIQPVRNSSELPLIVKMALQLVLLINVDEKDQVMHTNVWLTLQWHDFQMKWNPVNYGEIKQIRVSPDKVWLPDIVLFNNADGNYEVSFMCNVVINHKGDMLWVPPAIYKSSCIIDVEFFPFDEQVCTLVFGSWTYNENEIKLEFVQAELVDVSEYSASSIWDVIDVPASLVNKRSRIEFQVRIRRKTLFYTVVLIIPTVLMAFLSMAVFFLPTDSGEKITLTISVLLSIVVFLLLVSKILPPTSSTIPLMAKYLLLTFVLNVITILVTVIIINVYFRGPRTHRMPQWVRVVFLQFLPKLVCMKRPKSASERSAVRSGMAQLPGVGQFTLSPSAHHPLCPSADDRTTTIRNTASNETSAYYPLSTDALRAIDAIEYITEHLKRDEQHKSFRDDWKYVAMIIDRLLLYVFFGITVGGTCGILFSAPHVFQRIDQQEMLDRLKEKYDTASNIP
Chain of C. elegans levamisole-sensitive AChR (Cel-L-AChR) (Q23022 17-511, further chain): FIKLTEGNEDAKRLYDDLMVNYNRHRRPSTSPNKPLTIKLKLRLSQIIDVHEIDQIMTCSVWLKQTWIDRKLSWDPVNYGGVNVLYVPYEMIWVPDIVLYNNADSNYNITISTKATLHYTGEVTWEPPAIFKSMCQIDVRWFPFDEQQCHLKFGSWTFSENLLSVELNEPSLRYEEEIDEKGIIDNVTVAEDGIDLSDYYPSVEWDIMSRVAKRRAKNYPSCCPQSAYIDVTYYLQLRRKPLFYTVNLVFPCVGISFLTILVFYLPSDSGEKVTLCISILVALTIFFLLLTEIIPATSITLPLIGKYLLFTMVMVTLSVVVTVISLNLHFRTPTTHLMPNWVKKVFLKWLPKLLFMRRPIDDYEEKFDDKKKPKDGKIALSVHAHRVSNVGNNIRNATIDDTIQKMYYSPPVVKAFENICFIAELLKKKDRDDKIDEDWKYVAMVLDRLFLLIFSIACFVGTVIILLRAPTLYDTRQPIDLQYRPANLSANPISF
Chain of C. elegans levamisole-sensitive AChR (Cel-L-AChR) (Q9N587 24-502, further chain): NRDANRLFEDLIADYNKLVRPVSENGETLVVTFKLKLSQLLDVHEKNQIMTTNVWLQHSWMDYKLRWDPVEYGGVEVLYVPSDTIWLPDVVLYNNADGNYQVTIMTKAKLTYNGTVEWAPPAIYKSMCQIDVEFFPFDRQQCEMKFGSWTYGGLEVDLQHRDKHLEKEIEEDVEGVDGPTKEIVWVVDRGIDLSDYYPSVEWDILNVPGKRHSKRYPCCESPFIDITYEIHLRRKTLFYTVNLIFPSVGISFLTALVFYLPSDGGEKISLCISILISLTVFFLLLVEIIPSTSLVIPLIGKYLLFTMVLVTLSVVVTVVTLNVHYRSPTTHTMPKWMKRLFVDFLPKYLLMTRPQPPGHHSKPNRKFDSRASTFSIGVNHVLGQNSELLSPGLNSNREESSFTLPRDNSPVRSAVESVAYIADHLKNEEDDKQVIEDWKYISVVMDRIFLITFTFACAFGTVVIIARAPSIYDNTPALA
Chain of C. elegans levamisole-sensitive AChR (Cel-L-AChR) (Q93329 entry or part of it, further chain): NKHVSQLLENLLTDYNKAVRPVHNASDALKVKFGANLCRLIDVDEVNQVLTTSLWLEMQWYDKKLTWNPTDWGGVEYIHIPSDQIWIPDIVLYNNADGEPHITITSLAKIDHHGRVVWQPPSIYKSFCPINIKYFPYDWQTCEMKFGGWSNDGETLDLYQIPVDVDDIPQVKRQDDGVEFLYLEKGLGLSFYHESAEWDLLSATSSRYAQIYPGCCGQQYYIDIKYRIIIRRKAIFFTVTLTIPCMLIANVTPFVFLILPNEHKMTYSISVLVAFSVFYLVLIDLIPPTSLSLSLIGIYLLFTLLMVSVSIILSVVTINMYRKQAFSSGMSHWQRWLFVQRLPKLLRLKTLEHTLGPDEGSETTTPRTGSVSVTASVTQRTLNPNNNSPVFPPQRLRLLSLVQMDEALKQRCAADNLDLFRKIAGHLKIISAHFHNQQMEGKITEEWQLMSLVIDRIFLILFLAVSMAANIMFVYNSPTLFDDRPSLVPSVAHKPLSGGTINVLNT
Source text: as §1, §2

[12] = target: H. contortus levamisole-sensitive AChR (Hco-L-AChR-1) (Haemonchus contortus, UniProt A9XX24+D6MYE9+D6MYF3+D6MYF4); assay: Xenopus laevis oocyte two-electrode voltage-clamp, Hco-L-AChR-1; format: cell-based
Chain of H. contortus levamisole-sensitive AChR (Hco-L-AChR-1) (D6MYE9 entry or part of it): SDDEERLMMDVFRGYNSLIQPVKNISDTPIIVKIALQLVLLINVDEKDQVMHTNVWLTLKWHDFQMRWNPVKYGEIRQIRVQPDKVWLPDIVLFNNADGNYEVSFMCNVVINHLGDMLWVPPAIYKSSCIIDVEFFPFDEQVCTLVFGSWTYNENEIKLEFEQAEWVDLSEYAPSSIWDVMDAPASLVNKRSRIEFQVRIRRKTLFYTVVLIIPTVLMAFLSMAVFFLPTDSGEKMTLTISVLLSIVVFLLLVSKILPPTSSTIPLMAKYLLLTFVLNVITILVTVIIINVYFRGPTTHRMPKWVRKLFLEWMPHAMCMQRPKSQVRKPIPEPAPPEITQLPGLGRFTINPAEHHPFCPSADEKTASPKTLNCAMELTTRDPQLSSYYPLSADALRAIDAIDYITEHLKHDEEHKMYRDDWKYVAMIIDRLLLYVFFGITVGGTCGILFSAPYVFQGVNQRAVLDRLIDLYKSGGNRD
Chain of H. contortus levamisole-sensitive AChR (Hco-L-AChR-1) (D6MYF4 entry or part of it): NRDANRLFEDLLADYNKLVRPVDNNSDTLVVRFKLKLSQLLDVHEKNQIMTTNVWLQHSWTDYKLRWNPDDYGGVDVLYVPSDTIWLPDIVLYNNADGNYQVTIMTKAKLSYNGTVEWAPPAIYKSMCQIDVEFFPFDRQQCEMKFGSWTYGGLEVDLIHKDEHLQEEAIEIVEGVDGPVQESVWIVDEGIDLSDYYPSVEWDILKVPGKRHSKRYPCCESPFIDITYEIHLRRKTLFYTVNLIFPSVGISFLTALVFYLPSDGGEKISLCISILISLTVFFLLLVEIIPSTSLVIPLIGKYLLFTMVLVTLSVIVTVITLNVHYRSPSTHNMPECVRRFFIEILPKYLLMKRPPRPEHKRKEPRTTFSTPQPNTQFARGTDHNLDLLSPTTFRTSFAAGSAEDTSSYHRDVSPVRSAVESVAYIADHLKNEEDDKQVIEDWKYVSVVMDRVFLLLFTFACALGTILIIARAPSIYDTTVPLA
Chain of H. contortus levamisole-sensitive AChR (Hco-L-AChR-1) (A9XX24 entry or part of it): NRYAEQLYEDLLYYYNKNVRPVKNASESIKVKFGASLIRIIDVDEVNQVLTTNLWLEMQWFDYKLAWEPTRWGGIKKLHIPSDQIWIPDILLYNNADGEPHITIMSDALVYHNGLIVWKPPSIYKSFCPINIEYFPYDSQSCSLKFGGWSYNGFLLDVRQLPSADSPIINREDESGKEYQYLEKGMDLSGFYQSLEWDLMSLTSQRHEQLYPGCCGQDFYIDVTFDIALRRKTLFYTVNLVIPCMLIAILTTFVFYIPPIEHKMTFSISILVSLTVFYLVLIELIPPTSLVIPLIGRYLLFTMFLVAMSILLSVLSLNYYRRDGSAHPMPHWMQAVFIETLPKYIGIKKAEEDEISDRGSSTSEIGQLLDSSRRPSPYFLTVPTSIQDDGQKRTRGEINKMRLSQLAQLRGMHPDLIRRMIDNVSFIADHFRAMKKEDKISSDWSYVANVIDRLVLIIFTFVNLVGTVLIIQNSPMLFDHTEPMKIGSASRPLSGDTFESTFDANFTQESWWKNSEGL
Chain of H. contortus levamisole-sensitive AChR (Hco-L-AChR-1) (D6MYF3 entry or part of it): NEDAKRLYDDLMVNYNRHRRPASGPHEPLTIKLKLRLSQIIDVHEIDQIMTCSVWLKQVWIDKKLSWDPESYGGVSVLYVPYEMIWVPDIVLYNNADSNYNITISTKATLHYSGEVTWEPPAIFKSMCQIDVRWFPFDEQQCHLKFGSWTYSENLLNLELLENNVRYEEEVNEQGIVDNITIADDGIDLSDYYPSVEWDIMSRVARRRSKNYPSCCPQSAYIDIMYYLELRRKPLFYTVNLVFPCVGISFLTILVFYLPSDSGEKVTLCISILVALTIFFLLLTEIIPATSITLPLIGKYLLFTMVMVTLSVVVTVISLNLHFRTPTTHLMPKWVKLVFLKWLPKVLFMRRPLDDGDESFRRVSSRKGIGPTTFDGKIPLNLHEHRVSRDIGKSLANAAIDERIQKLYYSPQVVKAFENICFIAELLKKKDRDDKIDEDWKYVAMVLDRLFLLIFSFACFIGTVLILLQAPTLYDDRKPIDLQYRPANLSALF
Source text: as §1, §2

[13] = tested on: susceptible control H. contortus; assay: In vitro drug susceptibility of the susceptible control (assay not given); format: cell-based; settings: Haemonchus contortus

Molecule `CC(=O)OCC[N+](C)(C)C` [Acetylcholine, acetylcholine] has an EC50 ([1]; EC50, acetylcholine alone) of 21.7 ± 0.9 µM and an EC50 ([1]; EC50 of acetylcholine with lupanine (300 µM), in the presence of 300 µM lupanine) of 80.6 ± 27.5 µM.
With `CC=C(C)C(=O)OC1CCN2C[C@@H]3C[C@@H](CN4C(=O)CCC[C@H]34)[C@@H]2C1` (stereo partly shown) [Compound 1, 13-angeloyloxy or 13-tigloyloxy-lupanine] the “larval migration as percentage of control (ALMA)” value [2] was 62.4% and the “larval migration as percentage of control larval migration (ALMA)” value [3] was 53.6%.
With `O[C@@]12C[C@@H](CN3CCCC[C@H]31)[C@H]1CCCCN1C2` [Compound 4, 7-hydroxysparteine] the “larval migration as percentage of control larval migration (ALMA)” value [3] was 76%.
With `CC=C(C)C(=O)O[C@H]1CCN2C(=O)[C@@H]3C[C@@H](CN4C(=O)CCC[C@H]34)[C@@H]2C1` [Compound 5] the “larval migration as percentage of control larval migration (ALMA)” value [3] was “did not significantly inhibit”.
With `O=C(OC1CCN2C[C@@H]3C[C@@H](CN4C(=O)CCC[C@H]34)[C@@H]2C1)c1ccccc1` (stereo partly shown) [Compound 6] the “larval migration as percentage of control larval migration (ALMA)” value [3] was “did not significantly inhibit”.
For `O=c1cccc2n1C[C@@H]1CNC[C@H]2C1` [cytisine], the IC50 (mammalian nAChRs) is given as 0.14 µM.
In the case of `c1ccc([C@H]2CN3CCSC3=N2)cc1` [levamisole], the inhibition at 10 µM [4] is reported as 73.7%, the “in vivo Faecal Egg Reduction Test value” [5] is reported as 31.6% and the “eggs/g 14 days after treatment” value [5] is reported as 7800 eggs/g. It also gave an inhibition at 10 µM ([6]; Haemonchus contortus, H. contortus drug susceptible, lyophilized extracts 5 mg/mL, levamisole 10 µM, read-out: Average inhibitory effect) of 99.5%, an IC50 ([6]; Haemonchus contortus, concentration response assay, susceptible H. contortus isolate) of 1.61 µM and an inhibition at 10 µM ([6]; Haemonchus contortus, susceptible H. contortus L3, levamisole 10 µM, extract 5 mg/mL, estimate ± s.e.m., read-out: mean inhibition of larval migration) of 99.3%. The “Percentage of migrating larvae” value ([6]; fully susceptible isolate, fractions 2.5 mg/mL, fractions 1 and 8 0.625 mg/mL, levamisole 10 µM, negative control 100) was 12.1%, the EC50 ([7]; Haemonchus contortus) was 15.6 µM and the “Faecal Egg Count reduction in vivo” value [8] was 100%. For the same molecule, the EC50 ([3]; Haemonchus contortus, fully susceptible isolate, read-out: in vitro EC50 (Automated Larval Migration inhibition Assay)) was 1.1 µM, the IC50 [9] was 1.79 µM and the inhibition at 10 µM ([10]; Haemonchus contortus, H. contortus multidrug resistant, lyophilized extracts 5 mg/mL, read-out: Average inhibitory effect) was 30.5%. For the same molecule, the “Percentage of migrating larvae” value ([10]; multidrug-resistant isolate, fractions 2.5 mg/mL, fractions 1 and 8 0.625 mg/mL, negative control 100) was 39.7%.
In the case of `O=C1CCC[C@@H]2[C@H]3C[C@@H](CN12)[C@@H]1CCCCN1C3` [lupanine], the IC50 (mammalian nAChRs) is given as 5 µM, the “inhibition of the control migration” value ([6]; concentration response assay, 0 to 3 mM, susceptible isolate, linear, highly variable) is given as “less than 25%” and the “decrease in maximal ACh-elicited current” value ([11]; 300 µM lupanine, levamisole-sensitive receptors) is given as 38%. It also gave an IC50 ([11]; read-out: IC50 on ACh-elicited currents, Cel-L-AChR, n = 5) of 549 ± 64.1 µM, an IC50 ([12]; Hco-L-AChR-1, n = 5, read-out: IC50 on ACh-elicited currents) of 540 ± 90.2 µM and an inhibition at 300 µM ([12]; read-out: decrease in maximal ACh-elicited current) of 38%. For the same molecule, the “drop-off in the maximum amplitude of ACh-elicited currents” value ([1]; 300 µM lupanine) was 81% and the IC50 ([1]; n = 5, read-out: IC50 on ACh-elicited currents) was 116 ± 9.7 µM.
In the case of `CSc1nc2cc(Cl)c(Oc3cccc(Cl)c3Cl)cc2[nH]1` [triclabendazole], the EC50 ([7]; Haemonchus contortus) is reported as 0.587 µg/mL and the EC50 [13] is reported as 0.022 µg/mL (≈ 0.0612 µM).
In the case of ivermectin, the “in vivo Faecal Egg Reduction Test value” [5] is reported as 67.8%, the “eggs/g 14 days after treatment” value [5] is reported as 450 eggs/g and the EC50 [7] is reported as 0.055 µM.
